Measurements published in ChEMBL document CHEMBL1201862, “PubChem BioAssay data set” (2004).
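Exposure lasted 48 hours, with cells grown in 96-well plates and compounds tested at five concentrations. GI50 = concentration required for 50% inhibition of growth.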 Activity calls are given as the source filed them. Cut-off read from the data, not from the text of the source: active = GI50 up to about 1.1 µM and inactive = higher.

How the values were obtained:
Assay in all cases: inhibition of tumour cell growth, NCI panel, 48 h
DMS-273 = test system: DMS-273
SN12C = test system: SN12C
RPMI-8226 = test system: RPMI-8226
NCI-H522 = test system: NCI-H522
NCI-H23 = test system: NCI-H23
HT-29 = test system: HT-29
SNB-19 = test system: SNB-19
A498 = test system: A498
HOP-62 = test system: HOP-62
HCT-15 = test system: HCT-15
SK-MEL-2 = test system: SK-MEL-2
U-251 = test system: U-251
SF-295 = test system: SF-295
OVCAR-4 = test system: OVCAR-4
NCI-H460 = test system: NCI-H460
DLD-1 = test system: DLD-1
OVCAR-8 = test system: OVCAR-8
M14 = test system: M14

With c1ccc(SC(CCCCOC2CCCCO2)Sc2ccccc2)cc1 (stereo not given) the GI50 (DMS-273) was > 100 µM (inactive), the GI50 (SN12C) was > 100 µM (inactive) and the GI50 (RPMI-8226) was 32.4 µM (inactive). The GI50 (NCI-H522) was 18.4 µM (inactive), the GI50 (NCI-H23) was 40.8 µM (inactive) and the GI50 (HT-29) was 52 µM (inactive). For the same molecule, the GI50 (SNB-19) was > 100 µM (inactive), the GI50 (A498) was 88.7 µM (inactive) and the GI50 (HOP-62) was > 100 µM (inactive). The GI50 (HCT-15) was 91.2 µM, the GI50 (SK-MEL-2) was 22.6 µM (inactive) and the GI50 (U-251) was > 100 µM (inactive). The GI50 (SF-295) was > 100 µM (inactive), the GI50 (OVCAR-4) was 55.6 µM (inactive) and the GI50 (NCI-H460) was 99.1 µM (inactive). The GI50 (DLD-1) was > 100 µM (inactive), the GI50 (OVCAR-8) was 87.5 µM (inactive) and the GI50 (M14) was > 100 µM (inactive).

With O=C1c2ccccc2C2C1N2C(=O)C(F)(F)F (stereo not given) the GI50 (DMS-273) was > 100 µM (inactive), the GI50 (SN12C) was > 100 µM (inactive) and the GI50 (RPMI-8226) was > 100 µM (inactive). For the same molecule, the GI50 (NCI-H522) was > 100 µM (inactive), the GI50 (NCI-H23) was > 100 µM (inactive) and the GI50 (HT-29) was 74.8 µM (inactive). For the same molecule, the GI50 (SNB-19) was > 100 µM (inactive), the GI50 (A498) was > 100 µM (inactive) and the GI50 (HOP-62) was > 100 µM (inactive). For the same molecule, the GI50 (HCT-15) was over 100 µM, the GI50 (SK-MEL-2) was > 100 µM (inactive) and the GI50 (U-251) was > 100 µM (inactive). For the same molecule, the GI50 (SF-295) was > 100 µM (inactive), the GI50 (OVCAR-4) was > 100 µM (inactive) and the GI50 (NCI-H460) was > 100 µM (inactive). The GI50 (DLD-1) was > 100 µM (inactive), the GI50 (OVCAR-8) was > 100 µM (inactive) and the GI50 (M14) was > 100 µM (inactive).

CC(=O)OC1COC(Nc2ccc(C(C)=O)cc2)C(OC(C)=O)C1OC(C)=O (stereo not given) was tested, and the GI50 (DMS-273) was > 100 µM (inactive), the GI50 (SN12C) was > 100 µM (inactive) and the GI50 (RPMI-8226) was > 100 µM (inactive). For the same molecule, the GI50 (NCI-H522) was > 100 µM (inactive), the GI50 (NCI-H23) was > 100 µM (inactive) and the GI50 (HT-29) was > 100 µM (inactive). The GI50 (SNB-19) was > 100 µM (inactive), the GI50 (A498) was > 100 µM (inactive) and the GI50 (HOP-62) was > 100 µM (inactive). For the same molecule, the GI50 (HCT-15) was over 100 µM, the GI50 (SK-MEL-2) was > 100 µM (inactive) and the GI50 (U-251) was > 100 µM (inactive). The GI50 (SF-295) was > 100 µM (inactive), the GI50 (OVCAR-4) was > 100 µM (inactive) and the GI50 (NCI-H460) was > 100 µM (inactive). For the same molecule, the GI50 (DLD-1) was > 100 µM (inactive), the GI50 (OVCAR-8) was > 100 µM (inactive) and the GI50 (M14) was > 100 µM (inactive).

For CCOC(OC1=CCCC1)C(C)[Se]c1ccccc1 (stereo not given), the GI50 (DMS-273) was 16.9 µM (inactive), the GI50 (SN12C) was 30.7 µM (inactive) and the GI50 (RPMI-8226) was 18.1 µM (inactive). For the same molecule, the GI50 (NCI-H522) was 17.9 µM (inactive), the GI50 (NCI-H23) was 26.9 µM (inactive) and the GI50 (HT-29) was 23.3 µM (inactive). For the same molecule, the GI50 (SNB-19) was > 100 µM (inactive), the GI50 (A498) was 18.2 µM (inactive) and the GI50 (HOP-62) was > 100 µM (inactive). The GI50 (HCT-15) was 16.8 µM, the GI50 (SK-MEL-2) was 48.4 µM (inactive) and the GI50 (U-251) was 16.3 µM (inactive). For the same molecule, the GI50 (SF-295) was 31.5 µM (inactive), the GI50 (OVCAR-4) was 44.2 µM (inactive) and the GI50 (NCI-H460) was 19.6 µM (inactive). The GI50 (DLD-1) was 21.6 µM (inactive), the GI50 (OVCAR-8) was 39.5 µM (inactive) and the GI50 (M14) was 36.4 µM (inactive).

For Cc1ccc(S(=O)(=O)OCCn2cnc3nc(NC(=O)c4ccccc4)[nH]c(=O)c32)cc1, the GI50 (DMS-273) was > 100 µM (inactive), the GI50 (SN12C) was > 100 µM (inactive) and the GI50 (RPMI-8226) was > 100 µM (inactive). The GI50 (NCI-H522) was 52.6 µM (inactive), the GI50 (HT-29) was > 100 µM (inactive) and the GI50 (SNB-19) was > 100 µM (inactive). For the same molecule, the GI50 (A498) was > 100 µM (inactive), the GI50 (HOP-62) was > 100 µM (inactive) and the GI50 (HCT-15) was over 100 µM. The GI50 (SK-MEL-2) was > 100 µM (inactive), the GI50 (U-251) was > 100 µM (inactive) and the GI50 (SF-295) was > 100 µM (inactive). For the same molecule, the GI50 (OVCAR-4) was > 100 µM (inactive), the GI50 (NCI-H460) was > 100 µM (inactive) and the GI50 (DLD-1) was > 100 µM (inactive). The GI50 (OVCAR-8) was > 100 µM (inactive) and the GI50 (M14) was > 100 µM (inactive).

For CCOC(=O)C1=C(OC(OCC)C(CC)[Se]c2ccccc2)CCCC1 (stereo not given), the GI50 (DMS-273) was 15.1 µM (inactive), the GI50 (SN12C) was 14.6 µM (inactive) and the GI50 (RPMI-8226) was 13 µM (inactive). The GI50 (NCI-H522) was 14.6 µM (inactive), the GI50 (NCI-H23) was 10.9 µM (inactive) and the GI50 (HT-29) was 24.7 µM (inactive). For the same molecule, the GI50 (SNB-19) was 40.6 µM (inactive), the GI50 (A498) was > 100 µM (inactive) and the GI50 (HOP-62) was 54.2 µM (inactive). The GI50 (HCT-15) was 16.9 µM, the GI50 (SK-MEL-2) was 8.32 µM (inactive) and the GI50 (U-251) was 12.6 µM (inactive). The GI50 (SF-295) was 19.1 µM (inactive), the GI50 (OVCAR-4) was 14.5 µM (inactive) and the GI50 (NCI-H460) was 36.4 µM (inactive). The GI50 (DLD-1) was 17.5 µM (inactive), the GI50 (OVCAR-8) was 19.1 µM (inactive) and the GI50 (M14) was 15.6 µM (inactive).

For CN1N=C2c3ccccc3CC[C@H]2C1c1cccc(O)c1 (stereo not given in full), the GI50 (DMS-273) was > 100 µM (inactive), the GI50 (SN12C) was > 100 µM (inactive) and the GI50 (RPMI-8226) was > 100 µM (inactive). For the same molecule, the GI50 (NCI-H522) was > 100 µM (inactive), the GI50 (NCI-H23) was > 100 µM (inactive) and the GI50 (HT-29) was 55.1 µM (inactive). The GI50 (SNB-19) was > 100 µM (inactive), the GI50 (A498) was > 100 µM (inactive) and the GI50 (HOP-62) was > 100 µM (inactive). The GI50 (HCT-15) was over 100 µM, the GI50 (SK-MEL-2) was > 100 µM (inactive) and the GI50 (U-251) was > 100 µM (inactive). For the same molecule, the GI50 (SF-295) was > 100 µM (inactive), the GI50 (OVCAR-4) was 75.9 µM (inactive) and the GI50 (NCI-H460) was 81.1 µM (inactive). For the same molecule, the GI50 (DLD-1) was > 100 µM (inactive), the GI50 (OVCAR-8) was > 100 µM (inactive) and the GI50 (M14) was > 100 µM (inactive).
